Measurements reported in ChEMBL document CHEMBL4308841, “Synthesis, in vitro antiproliferative activity, and kinase inhibitory effects of pyrazole-containing diarylureas and diarylamides” (Eur J Med Chem, 2018).

Experiments:
[1] = tested on: NCI-H23; assay: Growth inhibition of human NCI-H23 cells incubated for 48 hrs by sulforhodamine B assay; type: functional, cell-based; settings: NCI-H23, 48 h
[2] = tested on: MDA-MB-468; assay: Growth inhibition of human MDA-MB-468 cells assessed as cell growth at 1 uM incubated for 48 hrs by sulforhodamine B assay relative to control; type: functional; settings: MDA-MB-468, 48 h, read-out: Activity
[3] = tested on: MOLT-4; assay: Growth inhibition of human MOLT4 cells assessed as cell growth at 0.01 uM incubated for 48 hrs by sulforhodamine B assay relative to control; type: functional; settings: MOLT-4, 48 h, read-out: Activity
[4] = tested on: SN12C; assay: Growth inhibition of human SN12C cells assessed as cell growth at 100 uM incubated for 48 hrs by sulforhodamine B assay relative to control; type: functional; settings: read-out: Activity
[5] = tested on: Malme-3M; assay: Growth inhibition of human MALME-3M cells assessed as cell growth at 0.01 uM incubated for 48 hrs by sulforhodamine B assay relative to control; type: functional; settings: read-out: Activity
[6] = tested on: NCI-H460; assay: Growth inhibition of human NCI-H460 cells assessed as cell growth at 100 uM incubated for 48 hrs by sulforhodamine B assay relative to control; type: functional; settings: NCI-H460, 48 h, read-out: Activity
[7] = tested on: SNB-19; assay: Growth inhibition of human SNB19 cells assessed as cell growth at 100 uM incubated for 48 hrs by sulforhodamine B assay relative to control; type: functional; settings: SNB-19, 48 h, read-out: Activity
[8] = tested on: M14; assay: Growth inhibition of human M14 cells assessed as cell growth at 0.1 uM incubated for 48 hrs by sulforhodamine B assay relative to control; type: functional; settings: M14, 48 h, read-out: Activity
[9] = tested on: OVCAR-4; assay: Growth inhibition of human OVCAR4 cells assessed as cell growth at 100 uM incubated for 48 hrs by sulforhodamine B assay relative to control; type: functional; settings: OVCAR-4, 48 h, read-out: Activity
[10] = tested on: OVCAR-3; assay: Growth inhibition of human OVCAR3 cells assessed as cell growth at 0.01 uM incubated for 48 hrs by sulforhodamine B assay relative to control; type: functional; settings: OVCAR-3, 48 h, read-out: Activity
[11] = tested on: SK-MEL-5; assay: Growth inhibition of human SK-MEL-5 cells assessed as cell growth at 100 uM incubated for 48 hrs by sulforhodamine B assay relative to control; type: functional; settings: SK-MEL-5, 48 h, read-out: Activity
[12] = tested on: MDA-MB-231; assay: Growth inhibition of human MDA-MB-231 cells assessed as cell growth at 1 uM incubated for 48 hrs by sulforhodamine B assay relative to control; type: functional; settings: MDA-MB-231, 48 h, read-out: Activity
[13] = tested on: HCT-15; assay: Growth inhibition of human HCT15 cells assessed as cell growth at 1 uM incubated for 48 hrs by sulforhodamine B assay relative to control; type: functional; settings: HCT-15, 48 h, read-out: Activity
[14] = tested on: NCI-H460; assay: Growth inhibition of human NCI-H460 cells assessed as cell growth at 0.01 uM incubated for 48 hrs by sulforhodamine B assay relative to control; type: functional; settings: NCI-H460, 48 h, read-out: Activity
[15] = tested on: HT-29; assay: Growth inhibition of human HT-29 cells assessed as cell growth at 0.1 uM incubated for 48 hrs by sulforhodamine B assay relative to control; type: functional; settings: HT-29, 48 h, read-out: Activity
[16] = tested on: HCT-116; assay: Growth inhibition of human HCT116 cells assessed as cell growth at 1 uM incubated for 48 hrs by sulforhodamine B assay relative to control; type: functional; settings: HCT-116, 48 h, read-out: Activity
[17] = tested on: SK-MEL-2; assay: Growth inhibition of human SK-MEL-2 cells assessed as cell growth at 1 uM incubated for 48 hrs by sulforhodamine B assay relative to control; type: functional; settings: SK-MEL-2, 48 h, read-out: Activity
[18] = tested on: HCT-116; assay: Growth inhibition of human HCT116 cells assessed as cell growth at 0.01 uM incubated for 48 hrs by sulforhodamine B assay relative to control; type: functional; settings: HCT-116, 48 h, read-out: Activity
[19] = tested on: MCF7; assay: Growth inhibition of human MCF7 cells assessed as cell growth at 100 uM incubated for 48 hrs by sulforhodamine B assay relative to control; type: functional; settings: MCF7, 48 h, read-out: Activity
[20] = tested on: NCI/ADR-RES; assay: Growth inhibition of human NCI/ADR-RES cells incubated for 48 hrs by sulforhodamine B assay; type: functional, cell-based
[21] = tested on: IGROV-1; assay: Growth inhibition of human IGROV1 cells assessed as cell growth at 1 uM incubated for 48 hrs by sulforhodamine B assay relative to control; type: functional; settings: IGROV-1, 48 h, read-out: Activity
[22] = tested on: NCI-H322M; assay: Growth inhibition of human NCI-H322M cells assessed as cell growth at 1 uM incubated for 48 hrs by sulforhodamine B assay relative to control; type: functional; settings: read-out: Activity
[23] = tested on: SK-MEL-28; assay: Growth inhibition of human SK-MEL-28 cells assessed as cell growth at 1 uM incubated for 48 hrs by sulforhodamine B assay relative to control; type: functional; settings: SK-MEL-28, 48 h, read-out: Activity
[24] = tested on: SR; assay: Growth inhibition of human SR cells assessed as cell growth at 1 uM incubated for 48 hrs by sulforhodamine B assay relative to control; type: functional; settings: read-out: Activity
[25] = tested on: PC-3; assay: Growth inhibition of human PC3 cells incubated for 48 hrs by sulforhodamine B assay; type: functional, cell-based; settings: PC-3, 48 h
[26] = tested on: COLO 205; assay: Growth inhibition of human COLO205 cells assessed as cell growth at 1 uM incubated for 48 hrs by sulforhodamine B assay relative to control; type: functional; settings: COLO 205, 48 h, read-out: Activity
[27] = tested on: A549; assay: Growth inhibition of human A549/ATCC cells incubated for 48 hrs by sulforhodamine B assay; type: functional, cell-based; settings: A549, 48 h
[28] = tested on: HCT-116; assay: Growth inhibition of human HCT116 cells assessed as cell growth at 100 uM incubated for 48 hrs by sulforhodamine B assay relative to control; type: functional; settings: HCT-116, 48 h, read-out: Activity
[29] = tested on: MDA-MB-435; assay: Growth inhibition of human MDA-MB-435 cells assessed as cell growth at 1 uM incubated for 48 hrs by sulforhodamine B assay relative to control; type: functional; settings: MDA-MB-435, 48 h, read-out: Activity
[30] = tested on: NCI-H460; assay: Growth inhibition of human NCI-H460 cells assessed as cell growth at 0.1 uM incubated for 48 hrs by sulforhodamine B assay relative to control; type: functional; settings: NCI-H460, 48 h, read-out: Activity
[31] = tested on: 786-0; assay: Growth inhibition of human 786-0 cells assessed as cell growth at 1 uM incubated for 48 hrs by sulforhodamine B assay relative to control; type: functional; settings: 786-0, 48 h, read-out: Activity
[32] = read-out: LC50 (the source's name)
[33] = read-out: pLC50 (the source's name) (converted)

## COc1cc(Cl)cc(-c2nn(-c3cccc(NC(=O)Nc4ccc(Cl)c(C(F)(F)F)c4)c3)cc2-c2ccncc2)c1
[1]; read-out: GI50
  GI50: 1360 nM
[1]; read-out: LC50
  LC50: > 100 µM
[1]; read-out: TGI
  TGI: 62.3 µM
[1]; read-out: pGI50 (converted)
  GI50: 1350 nM
[1]; read-out: pLC50 (converted)
  LC50: > 100 µM
[1]; read-out: pTGI (converted)
  TGI: 6.17 µM
[2]
  growth at 1 µM: 50%
[3]
  growth at 0.01 µM: 99%
[4]
  growth at 100 µM: -43%
[5]
  growth at 0.01 µM: 94%
[6]
  growth at 100 µM: -62%
[7]
  growth at 100 µM: -25%
[8]
  growth at 0.1 µM: 96%
[9]
  growth at 100 µM: -16%
[10]
  growth at 0.01 µM: 91%
[11]
  growth at 100 µM: -77%
[12]
  growth at 1 µM: 69%
[13]
  growth at 1 µM: 35%
[14]
  growth at 0.01 µM: 100%
[15]
  growth at 0.1 µM: 94%
[16]
  growth at 1 µM: 38%
[17]
  growth at 1 µM: 84%
[18]
  growth at 0.01 µM: 104%
[19]
  growth at 100 µM: -8%
[20]; read-out: GI50
  GI50: 1770 nM
[20]; [32]
  CC50: > 100 µM
[20]; read-out: TGI
  TGI: 11.5 µM
[20]; read-out: pGI50 (converted)
  GI50: 1780 nM
[20]; [33]
  CC50: > 100 µM
[20]; read-out: pTGI (converted)
  TGI: 5.89 µM
[21]
  growth at 1 µM: 87%
[22]
  growth at 1 µM: 89%
[23]
  growth at 1 µM: 85%
[24]
  growth at 1 µM: 53%
[25]
  IC50: 340 nM
[25]; read-out: GI50
  GI50: 342 nM
[25]; [32]
  CC50: > 100 µM
[25]; read-out: TGI
  TGI: 21.2 µM
[25]; read-out: pGI50 (converted)
  GI50: 339 nM
[25]; [33]
  CC50: > 100 µM
[25]; read-out: pTGI (converted)
  TGI: 2.14 µM
[26]
  growth at 1 µM: 80%
[27]
  IC50: 680 nM
[27]; read-out: GI50
  GI50: 676 nM
[27]; [32]
  CC50: 4.32 µM
[27]; read-out: TGI
  TGI: 10.6 µM
[27]; read-out: pGI50 (converted)
  GI50: 676 nM
[27]; [33]
  CC50: 46.8 µM
[27]; read-out: pTGI (converted)
  TGI: 10.7 µM
[28]
  growth at 100 µM: -94%
[29]
  growth at 1 µM: 81%
[30]
  growth at 0.1 µM: 102%
[31]
  growth at 1 µM: 74%
